{"source": "PubChem BioAssay AID1259409", "about": "(Chemical Carcinogenesis Research Information System (CCRIS), 2018)", "origin": "cited, not measured here", "system": "rodent chemically induced tumor inhibition, incidence and multiplicity", "experiment": "CCRIS tumor inhibitor studies", "conditions": "for outcome: Carcinogen: X-RAY, Route [Inhibitor]: INTRAPERITONEAL, Strain/Sex: C57BL/MALE AND FEMALE, Target Tissue: Type of Lesion: THYMUS GLAND: LYMPHOMA, Dose [Carcinogen]: 175 RADS 1/WK FOR 4 WK (250 KV X-RAYS, PHILLIPS RT 200/250)", "note": "Where a SMILES comes first, the peptide text is derived from it."}
{"compound": "CC(C)=CCC/C(C)=C/CC/C(C)=C/CCC1(C)CCc2cc(O)ccc2O1", "note": "(configuration not stated)", "values": [{"measurement": "tumour outcome (control, treated, inhibition, significance)", "setting": "Carcinogen: 7,12-DIMETHYLBENZ[A]ANTHRACENE, 57-97-6, Dose [Inhibitor]: 0, 3.381 UMOL/G IN DIET FOR DURATION OF STUDY (STUDY DURATION: 18 WK), Route [Inhibitor]: ORAL, Species: RAT, Strain/Sex: SPRAGUE-DAWLEY/FEMALE, Target Tissue: Type of Lesion: MAMMARY GLAND: TUMOR, Dose [Carcinogen]: 50 MG/KG IN SESAME OIL ONCE, Promoter: NONE USED", "value": "88%, 72%, 18%, not significant"}, {"measurement": "tumour outcome (control, treated, inhibition, significance)", "setting": "Carcinogen: N-METHYL-N-NITROSOUREA, 684-93-5, Dose [Inhibitor]: 0, 3.381 UMOL/G IN DIET FOR DURATION OF STUDY (STUDY DURATION: 19 WK), Route [Inhibitor]: ORAL, Species: RAT, Strain/Sex: SPRAGUE-DAWLEY/FEMALE, Target Tissue: Type of Lesion: MAMMARY GLAND: TUMOR, Dose [Carcinogen]: 30 MG/KG IN ACIDIFIED SALINE ONCE, Promoter: NONE USED", "value": "60%, 76%, -27%, not significant"}]}
{"compound": "C=C(NC(=O)Cc1ccccc1OC)C(=O)O", "values": [{"measurement": "outcome", "setting": "Dose [Inhibitor]: 0, 100 MG/KG 15 MIN PRIOR TO EACH IRRADIATION (STUDY DURATION: 14 MO), Species: MOUSE, Promoter: NONE USED", "value": "45%, 45%, 0%, not significant at 5 mo; 93%, >90%, <3%, not calculated"}, {"measurement": "outcome", "setting": "Dose [Inhibitor]: 0, 200 MG/KG 15 MIN PRIOR TO SECOND AND FOURTH IRRADIATION (STUDY DURATION 14 MO), Species: MOUSE, Promoter: NONE USED", "value": "45%, 0%, 100%, not calculated at 5 mo; 93%, 40%, 57%, not calculated at 8 mo"}, {"measurement": "outcome", "setting": "Dose [Inhibitor]: 0, 400 MG/KG ONCE 15 MIN PRIOR TO FIRST IRRADIATION (STUDY DURATION: 14 MO), Species: MOUSE, Promoter: NONE USED", "value": "45%, 10%, 78%, not calculated at 5 mo; 93%, >90%, <3%, not calculated at 8 mo"}]}
{"compound": "c1ccc2c(c1)-c1cccc3cccc-2c13", "values": [{"measurement": "tumour outcome (control, treated, inhibition, significance)", "setting": "Carcinogen: BENZO[A]PYRENE, 50-32-8, Dose [Inhibitor]: 40 UG IN 0.1 ML ACETONE 3/WK ADMINISTERED SIMULTANEOUSLY WITH CARCINOGEN FOR DURATION OF STUDY (STUDY DURATION: 440 D), Route [Inhibitor]: DERMAL, Species: MOUSE, Strain/Sex: ICR/FEMALE, Target Tissue: Type of Lesion: SKIN: PAPILLOMA, Dose [Carcinogen]: 5 UG IN 0.1 ML ACETONE 3/WK FOR DURATION OF STUDY, Promoter: NONE USED", "value": "16/50 (32%), 39/50 (78%), -144%, not calculated"}, {"measurement": "tumour outcome (control, treated, inhibition, significance)", "setting": "Carcinogen: BENZO[A]PYRENE, 50-32-8, Dose [Inhibitor]: 40 UG IN 0.1 ML ACETONE 3/WK ADMINISTERED SIMULTANEOUSLY WITH CARCINOGEN FOR DURATION OF STUDY (STUDY DURATION: 440 D), Route [Inhibitor]: DERMAL, Species: MOUSE, Strain/Sex: ICR/FEMALE, Target Tissue: Type of Lesion: SKIN: SQUAMOUS CARCINOMA, Dose [Carcinogen]: 5 UG IN 0.1 ML ACETONE 3/WK FOR DURATION OF STUDY, Promoter: NONE USED", "value": "12/50 (24%), 37/50 (74%), -208%, not calculated"}]}
{"compound": "CC1(C)O[C@@H]2C[C@H]3[C@@H]4C[C@H](F)C5=CC(=O)C=C[C@]5(C)[C@@]4(F)[C@@H](O)C[C@]3(C)[C@]2(C(=O)CO)O1", "values": [{"measurement": "tumour outcome (control, treated, inhibition, significance)", "setting": "Carcinogen: 3-METHYLCHOLANTHRENE, 56-49-5, Dose [Inhibitor]: 1 UG IN ACETONE 2/WK FOR 23 WK BEGINNING 1 WK POST CARCINOGEN DOSE (STUDY DURATION: 24 WK), Route [Inhibitor]: DERMAL, Species: MOUSE, Strain/Sex: CD-1/MALE, Target Tissue: Type of Lesion: SKIN: TUMOR, Dose [Carcinogen]: 600 UG IN ACETONE ONCE, Promoter: NONE USED", "value": "10%, 5%, 50%, not calculated"}, {"measurement": "tumour outcome (control, treated, inhibition, significance)", "setting": "Carcinogen: 3-METHYLCHOLANTHRENE, 56-49-5, Dose [Inhibitor]: 10 UG IN ACETONE 2/WK FOR 23 WK BEGINNING 1 WK POST CARCINOGEN DOSE (STUDY DURATION: 24 WK), Route [Inhibitor]: DERMAL, Species: MOUSE, Strain/Sex: CD-1/MALE, Target Tissue: Type of Lesion: SKIN: TUMOR, Dose [Carcinogen]: 600 UG IN ACETONE ONCE, Promoter: NONE USED", "value": "10%, 45%, -350%, not calculated"}, {"measurement": "tumour outcome (control, treated, inhibition, significance)", "setting": "Carcinogen: 7,12-DIMETHYLBENZ[A]ANTHRACENE, 57-97-6, Dose [Inhibitor]: 0, 0.5 NMOL IN 200 µL ACETONE APPLIED 30 MIN PRIOR TO EACH PROMOTER DOSE 2/WK FOR 25 WK BEGINNING 1 WK POST CARCINOGEN D, Route [Inhibitor]: DERMAL, Species: MOUSE, Strain/Sex: CD-1/FEMALE, Target Tissue: Type of Lesion: SKIN: PAPILLOMA, Dose [Carcinogen]: 200 NMOL IN 200 µL ACETONE ONCE, Promoter: 12-O-TETRADECANOYLPHORBOL-13-ACETATE, 16561-29-8", "value": "90%, 40%, 56%, not calculated"}, {"measurement": "tumour outcome (control, treated, inhibition, significance)", "setting": "Carcinogen: 7,12-DIMETHYLBENZ[A]ANTHRACENE, 57-97-6, Dose [Inhibitor]: 0, 0.5 NMOL IN 200 µL ACETONE APPLIED 30 MIN PRIOR TO EACH PROMOTER DOSE 2/WK FOR 25 WK BEGINNING 1 WK POST CARCINOGEN D, Route [Inhibitor]: DERMAL, Species: MOUSE, Strain/Sex: CD-1/FEMALE, Target Tissue: Type of Lesion: SKIN: PAPILLOMA, Dose [Carcinogen]: 200 NMOL IN 200 µL ACETONE ONCE, Promoter: MIREX, 2385-85-5", "value": "100%, 97%, 3%, not significant"}, {"measurement": "tumour outcome (control, treated, inhibition, significance)", "setting": "Carcinogen: 7,12-DIMETHYLBENZ[A]ANTHRACENE, 57-97-6, Dose [Inhibitor]: 0, 2 NMOL IN 200 µL ACETONE APPLIED 30 MIN PRIOR TO EACH PROMOTER DOSE 2/WK FOR 25 WK BEGINNING 1 WK POST CARCINOGEN DOS, Route [Inhibitor]: DERMAL, Species: MOUSE, Strain/Sex: CD-1/FEMALE, Target Tissue: Type of Lesion: SKIN: PAPILLOMA, Dose [Carcinogen]: 200 NMOL IN 200 µL ACETONE ONCE, Promoter: 12-O-TETRADECANOYLPHORBOL-13-ACETATE, 16561-29-8", "value": "90%, 11%, 88%, not calculated"}, {"measurement": "tumour outcome (control, treated, inhibition, significance)", "setting": "Carcinogen: 7,12-DIMETHYLBENZ[A]ANTHRACENE, 57-97-6, Dose [Inhibitor]: 0, 2 NMOL IN 200 µL ACETONE APPLIED 30 MIN PRIOR TO EACH PROMOTER DOSE 2/WK FOR 25 WK BEGINNING 1 WK POST CARCINOGEN DOS, Route [Inhibitor]: DERMAL, Species: MOUSE, Strain/Sex: CD-1/FEMALE, Target Tissue: Type of Lesion: SKIN: PAPILLOMA, Dose [Carcinogen]: 200 NMOL IN 200 µL ACETONE ONCE, Promoter: MIREX, 2385-85-5", "value": "100%, 92%, 8%, not calculated"}]}
{"compound": "N[C@@H](CCC(=O)O)C(=O)N[C@@H](Cc1c[nH]c2ccccc12)C(=O)O", "note": "(H-Glu-Trp-OH)", "values": [{"measurement": "tumour outcome (control, treated, inhibition, significance)", "setting": "Carcinogen: NONE, Dose [Inhibitor]: 5 UG 1X/D 5 D/WK FOR 12 MONTHS (STUDY DURATION: 1200 D), Route [Inhibitor]: SUBCUTANEOUS, Species: RAT, Strain/Sex: LIO/FEMALE, Target Tissue: Type of Lesion: TUMORS", "value": "12/31 (38.7%), 10/40 (25.0%), 35%, not significant"}]}
{"compound": "CCCCOC(=O)c1ccccc1C(=O)OCc1ccccc1", "values": [{"measurement": "tumour outcome (control, treated, inhibition, significance)", "setting": "Carcinogen: 7,12-DIMETHYLBENZ[A]ANTHRACENE, 57-97-6, Dose [Inhibitor]: 0, 250 MG/KG IN CORN OIL 1/D FOR 7 D PRIOR TO CARCINOGEN DOSE (STUDY DURATION: 16 WK), Route [Inhibitor]: GAVAGE, Species: RAT, Strain/Sex: ?/FEMALE, Target Tissue: Type of Lesion: MAMMARY GLAND: TUMOR, Dose [Carcinogen]: 31 MG/KG IN CORN OIL ONCE, Promoter: NONE USED", "value": "82%, 52%, 37%, p<0.05"}, {"measurement": "tumour outcome (control, treated, inhibition, significance)", "setting": "Carcinogen: 7,12-DIMETHYLBENZ[A]ANTHRACENE, 57-97-6, Dose [Inhibitor]: 0, 500 MG/KG IN CORN OIL 1/D FOR 7 D PRIOR TO CARCINOGEN DOSE (STUDY DURATION: 16 WK), Route [Inhibitor]: GAVAGE, Species: RAT, Strain/Sex: ?/FEMALE, Target Tissue: Type of Lesion: MAMMARY GLAND: TUMOR, Dose [Carcinogen]: 31 MG/KG IN CORN OIL ONCE, Promoter: NONE USED", "value": "82%, 52%, 37%, p<0.05"}]}
{"compound": "C/C=C/C1=CC2=CC3=C(C(=O)CCCCCCC)C(=O)O[C@@]3(C)C(=O)C2=CO1", "values": [{"measurement": "tumour outcome (control, treated, inhibition, significance)", "setting": "Carcinogen: 7,12-DIMETHYLBENZ[A]ANTHRACENE, 57-97-6, Dose [Inhibitor]: 0, 2 UMOL 2/WK FOR 18 WK APPLIED 30 MIN PRIOR TO EACH PROMOTER DOSE BEGINNING 1 WK POST CARCINOGEN DOSE (STUDY DURATION:, Route [Inhibitor]: DERMAL, Species: MOUSE, Strain/Sex: ICR/FEMALE, Target Tissue: Type of Lesion: SKIN: PAPILLOMA, Dose [Carcinogen]: 50 UG ONCE, Promoter: 12-O-TETRADECANOYLPHORBOL-13-ACETATE, 16561-29-8", "value": "100%, 7%, 93%, not calculated"}]}
